This is an account of results in US9856224B2, “Stable sodium channel blockers” (PARION SCIENCES, INC., priority 2014, dated 2018).

This assay addresses T1, airway epithelial sodium currents (epithelial sodium channel, ENaC) (Canis lupus familiaris, UniProt A0A8I3MKE6+A0A8I3Q679+Q95165).
T1 construct: endogenous in cells; host or cells: primary canine airway epithelial cells cultured at air-liquid interface, mounted in Ussing chambers
T1 sequence (A0A8I3Q679 1-649): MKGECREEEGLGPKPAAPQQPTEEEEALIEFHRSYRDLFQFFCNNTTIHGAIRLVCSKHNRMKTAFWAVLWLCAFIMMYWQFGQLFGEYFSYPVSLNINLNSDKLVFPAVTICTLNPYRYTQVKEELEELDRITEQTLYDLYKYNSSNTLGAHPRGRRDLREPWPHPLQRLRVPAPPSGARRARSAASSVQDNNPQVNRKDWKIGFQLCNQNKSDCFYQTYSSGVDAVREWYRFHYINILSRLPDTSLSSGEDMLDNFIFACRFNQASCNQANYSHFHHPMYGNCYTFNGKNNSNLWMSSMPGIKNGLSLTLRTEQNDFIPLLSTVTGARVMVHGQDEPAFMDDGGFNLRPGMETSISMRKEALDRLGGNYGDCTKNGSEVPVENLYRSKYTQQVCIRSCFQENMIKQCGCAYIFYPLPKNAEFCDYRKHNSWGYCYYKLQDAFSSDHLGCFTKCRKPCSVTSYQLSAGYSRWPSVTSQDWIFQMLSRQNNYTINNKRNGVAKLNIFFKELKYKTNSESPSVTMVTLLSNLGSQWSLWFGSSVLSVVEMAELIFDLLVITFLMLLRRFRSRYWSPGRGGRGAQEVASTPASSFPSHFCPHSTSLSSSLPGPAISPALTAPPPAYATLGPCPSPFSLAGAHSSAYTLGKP
T1 sequence (Q95165 1-641): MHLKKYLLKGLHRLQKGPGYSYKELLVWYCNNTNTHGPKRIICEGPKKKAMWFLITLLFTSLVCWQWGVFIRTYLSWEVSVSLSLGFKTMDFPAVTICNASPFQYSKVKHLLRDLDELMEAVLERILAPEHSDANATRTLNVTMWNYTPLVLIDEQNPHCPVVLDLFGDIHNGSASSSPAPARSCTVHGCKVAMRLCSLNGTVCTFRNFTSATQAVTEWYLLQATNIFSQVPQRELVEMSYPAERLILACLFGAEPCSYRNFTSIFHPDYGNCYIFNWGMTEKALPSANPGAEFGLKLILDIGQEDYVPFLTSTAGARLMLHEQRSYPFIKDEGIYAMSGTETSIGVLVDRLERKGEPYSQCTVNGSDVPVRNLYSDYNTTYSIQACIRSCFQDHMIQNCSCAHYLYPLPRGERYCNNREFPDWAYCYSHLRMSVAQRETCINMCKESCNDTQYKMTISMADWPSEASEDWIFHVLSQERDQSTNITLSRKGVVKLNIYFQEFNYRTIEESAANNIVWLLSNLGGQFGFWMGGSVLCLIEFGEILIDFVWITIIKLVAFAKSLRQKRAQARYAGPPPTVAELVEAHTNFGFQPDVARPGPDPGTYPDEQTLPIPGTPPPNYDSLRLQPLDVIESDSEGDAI
T1 sequence (A0A8I3MKE6 1-646): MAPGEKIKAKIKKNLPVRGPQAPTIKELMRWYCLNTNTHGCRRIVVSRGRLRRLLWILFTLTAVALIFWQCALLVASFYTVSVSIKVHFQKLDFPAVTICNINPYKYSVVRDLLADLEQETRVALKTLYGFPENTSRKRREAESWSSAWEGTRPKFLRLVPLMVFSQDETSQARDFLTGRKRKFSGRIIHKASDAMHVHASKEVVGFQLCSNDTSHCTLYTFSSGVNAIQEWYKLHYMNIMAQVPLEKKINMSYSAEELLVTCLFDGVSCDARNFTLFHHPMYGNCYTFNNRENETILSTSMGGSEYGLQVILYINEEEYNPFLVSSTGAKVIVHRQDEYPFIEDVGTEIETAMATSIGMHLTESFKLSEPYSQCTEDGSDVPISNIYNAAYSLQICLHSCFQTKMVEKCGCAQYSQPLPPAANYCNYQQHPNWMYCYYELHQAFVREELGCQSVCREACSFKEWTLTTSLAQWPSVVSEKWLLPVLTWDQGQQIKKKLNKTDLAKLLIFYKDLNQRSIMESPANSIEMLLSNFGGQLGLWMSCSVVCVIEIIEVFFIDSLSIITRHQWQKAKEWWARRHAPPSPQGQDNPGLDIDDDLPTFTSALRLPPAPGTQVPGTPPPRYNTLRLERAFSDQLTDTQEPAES
The assay is described as follows: In vitro measure of sodium channel blocking activity (short circuit current, Ussing chambers). The note with it: freshly excised cells from canine airways; lumenal drug addition; short circuit current (ISC). In kind it is cell-based. As to the method:
One assay used to assess mechanism of action and/or potency of the compounds of the present invention involves the determination of lumenal drug inhibition of airway epithelial sodium currents measured under short circuit current (ISC) using airway epithelial monolayers mounted in Ussing chambers. Cells obtained from freshly excised human, dog, sheep or rodent airways are seeded onto porous 0.4 micron Snapwell™ Inserts (CoStar), cultured at air-liquid interface (ALI) conditions in hormonally defined media, and assayed for sodium transport activity (ISC) while bathed in Krebs Bicarbonate Ringer (KBR) in Using chambers. All test drug additions are to the lumenal bath with half-log dose addition protocols (from 1×10^−11 M to 3×10^−5 M), and the cumulative change in ISC (inhibition) recorded. […] After the maximal concentration (5×10^−5 M) is administered, the lumenal bath is exchanged three times with fresh drug-free KBR solution, and the resultant ISC measured after each wash for approximately 5 minutes in duration. […] All data from the voltage clamps are collected via a computer interface and analyzed off-line. Dose-effect relationships for all compounds are considered and analyzed by the Prism 3.0 program. IC50 values, maximal effective concentrations, and reversibility are calculated and compared to amiloride and benzamil as positive controls. […]

For the molecule `N=C(N)NCCCC[C@H](NC[C@H](O)[C@@H](O)[C@H](O)[C@H](O)CO)C(=O)NCCOc1ccc(CCCCNC(=N)NC(=O)c2nc(Cl)c(N)nc2N)cc1` [Compound I, 3,5-diamino-6-chloro-N—(N-(4-(4-(2-((S)-6-guanidino-2-((2S,3R,4R,5R)-2,3,4,5,6-pentahydroxyhexylamino)hexanamido)ethoxy)phenyl)butyl)carbamimidoyl)pyrazine-2-carboxamide], it took 13.2 nM to reach half-maximal inhibition (IC50).
